Assay results as given in patent publication US10954214B2 (Janssen Pharmaceutica NV, priority 2016, dated 2021).

Experiments:
[1] = tested on: IL10 secretion by OCI-LY3 ABC-DLBCL cells; assay: Human IL10 Mesoscale assay (OCI-LY3); assay type: cell-based; conditions: Homo sapiens, 24 h
Outline: (§1)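 After 24 h at 37 °C with test compounds (15 μM down to 58.6 nM, 9 twofold steps, 0.3% DMSO), IL6 and IL10 secreted by 100,000 OCI-LY3 or TMD8 cells per well were measured in supernatants with a Mesoscale immunoassay. Data were scaled between DMSO wells (high) and RN486 treatment (low).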

[2] = tested on: IL6 secretion by OCI-LY3 ABC-DLBCL cells; assay: Human IL6 Mesoscale assay (OCI-LY3); assay type: cell-based; conditions: Homo sapiens, 24 h
Outline: as §1

[3] = biological target: full-length MALT1 protein (Strep-MALT1(1-824)-His) (Homo sapiens (Human), UniProt Q9UDY8); assay: MALT1 Biochemical Protease Assay (Ac-LRSR-AMC substrate); conditions: 10 nM FL MALT1, 200 μM Ac-LRSR-AMC, 4 h at RT; read-out: MALT1_Biochemical activity (Ac-LRSR-amc) IC50
Chain of full-length MALT1 protein (Strep-MALT1(1-824)-His) (Q9UDY8 whole entry): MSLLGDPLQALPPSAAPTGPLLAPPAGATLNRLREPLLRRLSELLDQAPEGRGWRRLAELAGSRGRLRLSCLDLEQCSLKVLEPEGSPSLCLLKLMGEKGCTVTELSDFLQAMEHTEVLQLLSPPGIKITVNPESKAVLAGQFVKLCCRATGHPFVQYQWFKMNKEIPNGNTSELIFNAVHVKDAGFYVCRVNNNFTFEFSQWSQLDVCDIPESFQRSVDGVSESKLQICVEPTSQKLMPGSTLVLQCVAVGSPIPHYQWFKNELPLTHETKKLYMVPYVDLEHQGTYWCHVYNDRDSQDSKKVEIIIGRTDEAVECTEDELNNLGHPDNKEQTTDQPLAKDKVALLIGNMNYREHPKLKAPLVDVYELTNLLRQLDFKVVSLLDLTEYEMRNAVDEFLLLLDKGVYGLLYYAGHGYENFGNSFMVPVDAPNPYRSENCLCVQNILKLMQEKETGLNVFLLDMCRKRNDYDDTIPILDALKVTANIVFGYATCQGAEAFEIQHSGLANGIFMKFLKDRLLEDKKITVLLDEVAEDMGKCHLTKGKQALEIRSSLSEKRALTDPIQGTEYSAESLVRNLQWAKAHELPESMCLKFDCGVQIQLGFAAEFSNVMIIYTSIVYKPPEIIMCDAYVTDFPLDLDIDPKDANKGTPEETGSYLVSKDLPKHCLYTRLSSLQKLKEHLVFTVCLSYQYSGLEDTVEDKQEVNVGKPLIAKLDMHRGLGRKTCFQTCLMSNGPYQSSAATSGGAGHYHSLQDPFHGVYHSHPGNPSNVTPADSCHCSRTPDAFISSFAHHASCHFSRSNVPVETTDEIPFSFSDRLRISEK
Outline: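 Fluorescence from AMC release off the quenched LRSR substrate was read after a 4 h reaction at RT. Values were normalised to no-enzyme and uninhibited controls and fitted for IC50 and Hill coefficient.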

Compound | IC50 [1] | IC50 [2] | IC50 [3]
Cc1nc(-n2nccn2)c(Cl)cc1NC(=O)c1cnn(-c2cncc3sccc23)c1C(F)(F)F [Cpd 321, N-(5-chloro-2-methyl-6-(2H-1,2,3-triazol-2-yl)pyridin-3-yl)-1-(thieno[2,3-c]pyridin-4-yl)-5-(trifluoromethyl)-1H-pyrazole-4-carboxamide] | 49 nM | 66 nM | 21 nM
Cc1ccc(-n2ncc(C(=O)Nc3ccnc(C(F)(F)F)c3)c2C(F)(F)F)c2ccnn12 [Cpd 207, 1-(7-methylpyrazolo[1,5-a]pyridin-4-yl)-5-(trifluoromethyl)-N-(2-(trifluoromethyl)pyridin-4-yl)-1H-pyrazole-4-carboxamide] | 513 nM | 525 nM | 331 nM
Nc1nccc2c(-n3ncc(C(=O)Nc4cnc(-n5nccn5)c(Cl)c4)c3C(F)(F)F)cccc12 [Cpd 330, 1-(1-aminoisoquinolin-5-yl)-N-(5-chloro-6-(2H-1,2,3-triazol-2-yl)pyridin-3-yl)-5-(trifluoromethyl)-1H-pyrazole-4-carboxamide] | 25 nM | 21 nM | 646 nM
Cc1cc(NC(=O)c2cnn(-c3cccc4c(=O)[nH]ccc34)c2C(F)(F)F)ccn1 [Cpd 347, N-(2-methylpyridin-4-yl)-1-(1-oxo-1,2-dihydroisoquinolin-5-yl)-5-(trifluoromethyl)-1H-pyrazole-4-carboxamide] | 31 nM | 43 nM | 933 nM
O=C(Nc1cnc(-c2cn[nH]n2)c(Cl)c1)c1cnn(-c2cccc3ncccc23)c1C(F)(F)F [Cpd 309, N-(5-chloro-6-(2H-1,2,3-triazol-4-yl)pyridin-3-yl)-1-(quinolin-5-yl)-5-(trifluoromethyl)-1H-pyrazole-4-carboxamide] | 117 nM | 151 nM | 55 nM
COc1ncc(-n2ncc(C(=O)Nc3cnc(-n4nccn4)c(Cl)c3)c2C(F)(F)F)c2ccccc12 [Cpd 421, N-(5-chloro-6-(2H-1,2,3-triazol-2-yl)pyridin-3-yl)-1-(1-methoxyisoquinolin-4-yl)-5-(trifluoromethyl)-1H-pyrazole-4-carboxamide] | 479 nM | 457 nM | 20 nM

Now from value to compound:

IC50 [1] | IC50 [2] | IC50 [3] | Compound
20 nM | 20 nM | 2690 nM | COc1cc(NC(=O)c2cnn(-c3cccc4c(=O)[nH]ccc34)c2C(F)(F)F)ccn1 [Cpd 360, N-(2-methoxypyridin-4-yl)-1-(1-oxo-1,2-dihydroisoquinolin-5-yl)-5-(trifluoromethyl)-1H-pyrazole-4-carboxamide]
24 nM | 25 nM | 60 nM | O=C(Nc1cnc(-n2nccn2)c(Cl)c1)c1cnn(-c2cnc(C3CCCO3)c3ccccc23)c1C(F)(F)F (stereo not drawn) [Cpd 365, N-(5-chloro-6-(2H-1,2,3-triazol-2-yl)pyridin-3-yl)-1-(1-(tetrahydrofuran-2-yl)isoquinolin-4-yl)-5-(trifluoromethyl)-1H-pyrazole-4-carboxamide]
16 nM | 40 nM | 117 nM | CNc1ncc(-n2ncc(C(=O)Nc3cnc(-n4nccn4)c(Cl)c3)c2C(F)(F)F)c2cccc(F)c12 [Cpd 324, N-(5-chloro-6-(2H-1,2,3-triazol-2-yl)pyridin-3-yl)-1-(8-fluoro-1-(methylamino)isoquinolin-4-yl)-5-(trifluoromethyl)-1H-pyrazole-4-carboxamide]
100 nM | 110 nM | 81 nM | N#Cc1cc(NC(=O)c2cnn(-c3cccc4nc(F)ccc34)c2C(F)(F)F)cnc1-n1nccn1 [Cpd 291, N-(5-cyano-6-(2H-1,2,3-triazol-2-yl)pyridin-3-yl)-1-(2-fluoroquinolin-5-yl)-5-(trifluoromethyl)-1H-pyrazole-4-carboxamide]
